# Results taken from US20060084694A1, “Ligand-dependant activation of Nur77 and uses thereof” (priority 2004, published 2006).
# Entries after “also recorded” stand apart in the source; their conditions may differ.
# How the values were obtained:
# [1] = biological target: T1, GAL4-Nur77 (Homo sapiens, UniProt P22736); assay: Nur77 antagonist assay: cotreatment with Nur77 agonists, GAL4-Nur77/pGAL4 in Panc-28 cells; format: cell-based; details: for Nur77 antagonist activity (inhibition of agonist-induced transactivation): Panc-28, cotreatment with Nur77 agonists, 10 or 20 μM (FIG. 2C-2E)
# T1 construct: expressed in transfected cells; host or cells: Panc-28
# Excerpt: (§1) Transfection assays were essentially carried out as previously described using Lipofectamine Plus reagent (Invitrogen, Carlsbad, Calif.) and luciferase activities were normalized to β-galactosidase activity. […] Results are expressed as means±SE for at least three replicate determinations for each treatment group.
# (§2) (FIG. 2A). […] The structural specificity of Nur77 antagonists was further investigated using meta-hydroxy (DIM-C-mPhOH) and ortho-hydroxy (DIM-C-oPhOH) analogs. […] Thus, activation of Nur77 by C-DIMs was E/F domain-dependent and Nur77 activation was inhibited by DIM-C-pPhOH; moreover, both activation and inhibition of Nur77-mediated transactivation was dependent on the structure of the C-DIM compounds.
# [2] = biological target: T2, GAL4-Nur77 (full length) chimera (Homo sapiens, UniProt P22736); assay: GAL4-Nur77 (full length)/pGAL4 luciferase transactivation in Panc-28 cells; format: cell-based; details: for Nur77 activation, structure dependence (isomers and ring-substituted analogs): FIG. 1D, analogs data not shown; for luciferase activity, GAL4-Nur77 (full length)/pGAL4: Panc-28 cells, 10 or 20 μM (FIG. 1B)
# T2 construct: Panc-28 cells transfected with a GAL4-Nur77 (full length) chimera; expressed in transfected cells; host or cells: Panc-28
# Excerpt: Structure-dependent activation of Nur77 by a series of eleven C-substituted DIMs was investigated in Panc-28 cells transfected with a GAL4-Nur77 (full length) chimera and a reporter construct containing five GAL4 response elements linked to a luciferase reporter gene (pGAL4).
# as §1
# [3] = biological target: VP-Nur77 (ligand binding domain) / GAL4-coactivator chimeras (Homo sapiens, UniProt P22736); details: Panc-28, VP-Nur77
# Description: Panc-28 cells were plated in 12-well plates at 1×10^5 cells/well in DME-F12 media supplemented with 2.5% charcoal-stripped FBS. After growth for 16 hr, various amounts of DNA, i.e. Gal4Luc (0.4 μg), β-gal (0.04 μg), VP-Nur77(E/F) (0.04 μg), pM SRC1 (0.04 μg), pMSRC2 (0.04 μg), pMSRC3 (0.04 μg), pMDRIP205 (0.04 μg) and pMCARM-1 (0.04 μg) were transfected by Lipofectamine (Invitrogen) according to the manufacturer's protocol. After 5 hr of transfection, the transfection mix was replaced with complete media containing either vehicle (DMSO) or the indicated ligand for 20-22 hr. Cells were then lysed with 100 ml of 1X reporter lysis buffer, and 30 μl of cell extract were used for luciferase and β-Gal assays. Lumicount was used to quantitate luciferase and β-Gal activities, and the luciferase activities were normalized to β-Gal activity.
# Ligand-induced Nur77-coactivator interactions were determined using a construct (pGAL4) containing 5 GAL4 response elements. Coactivators used in this study include SRC-1, SRC-2 (TIFII), SRC-3 (AIB1), PGC-1, TRAP220 and CARM-1. A GAL4-repressor (SMRT) chimera was also included in the assay.
# [4] = test system: Panc-28 cell xenografts; assay: Tumor growth in athymic nude mice bearing Panc-28 cell xenografts; format: in vivo, athymic nude mice (BALB/c)
# Description: Male athymic nude mice (BALB/c, ages 8-12 weeks) were purchased from Harlan (Indianapolis, Ind.). The mice were housed and maintained in laminar flow cabinets under specific pathogen-free conditions. Panc-28 cells were harvested from subconfluent cultures by trypsinization and washed. Panc-28 cells (2×10^6) were injected subcutaneously into each mouse on both flanks using a 30-gauge needle. The tumors were allowed to grow for 11 days until tumors were palpable. Mice were then randomized into two groups of seven mice per group and dosed by oral gavage with either corn oil or DIM-C-pPhOCH3 every second day. The volume of corn oil was 75 μl, and the dose of DIM-C-pPhOCH3 was 25 mg/kg/day. The mice were weighed, and tumor areas were also measured ever other day. Final body and tumor weights were determined at the end of the dosing regiment; and selected tissues were further examined by routine H & E staining and immunohistochemical analysis for apoptosis using the TUNEL assay.
# [5] = test system: Panc-28 cells; assay: Annexin V-Alexa-488 / propidium iodide apoptosis assay in Panc-28 cells; format: cell-based; details: for annexin V-stained cells: Panc-28, 10 and 20 μM, 8 and 12 hr (FIG. 5C)
# Description: Detection of phosphatidylserine on the outside of the cell membrane, a unique and early marker for apoptosis, was performed using a commercial kit (Vybrant Apoptosis Assay Kit #2; Molecular Probes, Eugene, Oreg.). […] Binding of annexin V-Alexa-488 conjugate and propidium iodide (PI) was performed according to the manufacturer's instructions. After binding and washing, cells were observed under phase contrast and epifluorescent illumination using a 495-nm excitation filter and a 520-nm absorption filter for annexin V-Alexa 488 and a 546-nm excitation filter and a 590-nm absorption filter for PI. Healthy cells were unstained by either dye; cells in early stages of apoptosis were stained only by annexin V, while dead cells were stained by annexin V and PI. The assay was repeated on three separate Panc-28 cell preparations.
# [6] = biological target: T3, Nur77 (Homo sapiens, UniProt P22736); assay: Nur77 subcellular localization and level (immunostaining, Western blot of cytosolic and nuclear extracts); details: for Nur77 translocation, Western blot of cytosolic and nuclear extracts: Panc-28, 10 or 20 μM, 12 hr (FIG. 4B); for Nur77 localization by immunostaining: Panc-28 cells, 10 μM, 6 hr (FIG. 4A)
# Description: The different cancer cell lines were cultured under standardized conditions. Panc-28 cells were grown in DMEM:Ham's F-12 media containing 2.5% charcoal stripped fetal bovine serum, and cells were treated with DMSO and different concentrations of test compounds as indicated. […] For all other assays, cytosolic, nuclear fractions, or whole cell lysates were obtained at various time points, analyzed by Western blot analysis, and bands were quantitated as previously described (Qin, et al., 2004; Abdelrahim, et al., 2002). Immunocytochemical analysis was determined using Nur77 antibodies as previously reported (Abdelrahim, et al., 2002).
# Sp1 is a nuclear protein and was used as a control to ensure efficient separation of the two extracts and Sp1 was identified only in the nuclear fraction.
# [7] = biological target: T4, GAL4-Nur77(E/F) (Homo sapiens, UniProt P22736); assay: GAL4-Nur77(E/F)/pGAL4 transactivation in Panc-28 cells; format: cell-based; details: 5-15 μM (FIG. 2A)
# T4 construct: a chimeric GAL4-Nur77(E/F) construct containing only the E/F domain of Nur77; expressed in transfected cells; host or cells: Panc-28
# Excerpt: as §1, §2
# [8] = biological target: T5, PPARγ (Homo sapiens, UniProt P37231); details: Qin, et al., 2004, Chintharlapalli; cited from earlier work
# T5 sequence (P37231 1-505): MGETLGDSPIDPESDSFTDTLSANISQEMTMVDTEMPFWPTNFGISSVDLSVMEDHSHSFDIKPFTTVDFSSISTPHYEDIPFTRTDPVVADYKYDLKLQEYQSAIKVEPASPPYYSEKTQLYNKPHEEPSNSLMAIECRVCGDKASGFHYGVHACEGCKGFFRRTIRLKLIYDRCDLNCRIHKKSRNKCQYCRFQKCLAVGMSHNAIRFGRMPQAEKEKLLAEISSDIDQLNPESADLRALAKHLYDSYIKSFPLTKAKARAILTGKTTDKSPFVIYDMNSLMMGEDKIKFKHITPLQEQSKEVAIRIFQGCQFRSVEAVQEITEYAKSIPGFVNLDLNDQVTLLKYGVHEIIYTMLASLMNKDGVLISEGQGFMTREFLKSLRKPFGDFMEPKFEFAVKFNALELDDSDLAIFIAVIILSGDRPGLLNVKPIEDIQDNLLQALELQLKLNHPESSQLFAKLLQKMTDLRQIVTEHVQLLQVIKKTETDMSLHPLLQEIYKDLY
# [9] = test system: TRAIL mRNA; assay: TRAIL mRNA in Panc-28 cells (RT-PCR); format: cell-based; details: Panc-28 cells (FIG. 6B)
# Description: cDNA was prepared from the Panc-28 cell line using a combination of oligodeoxythymidylic acid (Oligo d(T)16), and dNTP mix (Applied Biosystems) and Superscript II (Invitrogen). Each PCR was carried out in triplicate in a 20-μl volume using Sybr Green Mastermix (Applied Biosystems) for 15 min at 95° C. for initial denaturing, followed by 40 cycles of 95° C. for 30 s and 60° C. for 1 min in the ABI Prism 7700 Sequence Detection System. The ABI Dissociation Curves software was used following a brief thermal protocol (95° C. 15 s and 60° C. 20 s, followed by a slow ramp to 95° C.) to control for multiple species in each PCR amplification. Values for each gene were normalized to expression levels of TBP. The sequences of the primers used for RT-PCR were as follows: TRAIL forward, 5′-CGTGTACTTTACCAACGAGCTGA-3′, reverse, 5′-ACGGAGTTGCCACTTGACTTG-3′; and TBP forward, 5′-TGCACAGGAGCCAAGAGTGAA-3′, reverse, 5′-CACATCACAGCTCCCCACCA-3′.
# [10] = test system: Panc-28 cells; assay: Cell survival of Panc-28 cells; format: cell-based
# Description: The different cancer cell lines were cultured under standardized conditions. Panc-28 cells were grown in DMEM:Ham's F-12 media containing 2.5% charcoal stripped fetal bovine serum, and cells were treated with DMSO and different concentrations of test compounds as indicated. For longer term cell survival studies, the media was changed every second day, and values were presented for a 4 day experiment.
# [11] = test system: TRAIL; assay: TRAIL protein expression in Panc-28 cells (Western blot); format: cell-based
# Excerpt: In thymocytes, there is evidence that Nur77-induced apoptosis is linked to transcriptional activation (uang, et al., 1999), and microarray studies in thymocytes undergoing Nur77-dependent apoptosis identified several apoptosis-related genes including fasL and TRAIL (Rajpal, et al., 2003). […] (FIG. 6B). Since TRAIL activates the extrinsic apoptosis pathway and activation of caspase 8, the effect of a caspase 8 inhibitor (Z-IETD-FMK) and the pan-caspase inhibitor (Z-VAD-FMK) was also investigated on induction of PARP cleavage by Nur77 agonists (FIG. 6C).
# [12] = biological target: T3, Nur77; assay: Nur response element (NurRE) luciferase transactivation in Panc-28 cells; format: cell-based; design: endogenous in cells; host or cells: Panc-28; details: 10 or 20 μM (FIG. 1C)
# [13] = test system: PARP cleavage; assay: PARP cleavage in Panc-28 cells (Western blot); format: cell-based; details: for effect of leptomycin B on PARP cleavage induced by Nur77 agonists: Panc-28, LMB 1 ng/ml cotreatment (FIG. 5E)
# Description: The different cancer cell lines were cultured under standardized conditions. Panc-28 cells were grown in DMEM:Ham's F-12 media containing 2.5% charcoal stripped fetal bovine serum, and cells were treated with DMSO and different concentrations of test compounds as indicated. For longer term cell survival studies, the media was changed every second day, and values were presented for a 4 day experiment. For all other assays, cytosolic, nuclear fractions, or whole cell lysates were obtained at various time points, analyzed by Western blot analysis, and bands were quantitated as previously described (Qin, et al., 2004; Abdelrahim, et al., 2002). Immunocytochemical analysis was determined using Nur77 antibodies as previously reported (Abdelrahim, et al., 2002).
# [14] = Panc-28, cotreatment with DIM-C-pPhOH3 or DIM-C-Ph (FIG. 6E)
# T4 sequence (P22736 360-595 limits assumed): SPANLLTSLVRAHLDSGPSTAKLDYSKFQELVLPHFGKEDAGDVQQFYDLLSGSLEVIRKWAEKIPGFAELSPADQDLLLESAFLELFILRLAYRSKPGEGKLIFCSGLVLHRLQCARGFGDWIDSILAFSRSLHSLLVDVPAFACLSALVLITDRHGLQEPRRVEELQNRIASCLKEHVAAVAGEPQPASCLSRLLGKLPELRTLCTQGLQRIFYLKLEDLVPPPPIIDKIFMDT
# Chain of VP-Nur77 (ligand binding domain) / GAL4-coactivator chimeras (P22736 360-595 limits assumed, change not shown): as the sequence (P22736 360-595 limits assumed) above
# T1 sequence (P22736 whole entry, the tested form may be a part): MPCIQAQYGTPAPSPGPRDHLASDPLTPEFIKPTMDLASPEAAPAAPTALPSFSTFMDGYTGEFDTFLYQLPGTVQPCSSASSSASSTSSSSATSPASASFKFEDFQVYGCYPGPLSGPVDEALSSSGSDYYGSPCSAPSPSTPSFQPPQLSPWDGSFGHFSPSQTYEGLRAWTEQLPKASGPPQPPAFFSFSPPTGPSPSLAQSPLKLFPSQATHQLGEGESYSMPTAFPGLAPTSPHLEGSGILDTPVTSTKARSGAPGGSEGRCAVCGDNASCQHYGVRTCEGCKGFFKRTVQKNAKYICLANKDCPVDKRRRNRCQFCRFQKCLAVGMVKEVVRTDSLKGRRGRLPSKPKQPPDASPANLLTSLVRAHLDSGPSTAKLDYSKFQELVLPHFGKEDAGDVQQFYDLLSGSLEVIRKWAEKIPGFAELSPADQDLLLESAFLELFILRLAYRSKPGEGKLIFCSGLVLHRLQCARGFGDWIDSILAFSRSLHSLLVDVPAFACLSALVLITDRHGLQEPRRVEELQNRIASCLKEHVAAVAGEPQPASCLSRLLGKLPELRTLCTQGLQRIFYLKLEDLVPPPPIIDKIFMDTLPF
# T3 sequence (P22736 whole entry, the tested form may be a part): as above
# T2 sequence (P22736 whole entry, change not shown, the tested form may be a part): as the sequence (P22736 whole entry, the tested form may be a part) above
smiles,measurement,setting,value
Oc1ccccc1C(c1c[nH]c2ccccc12)c1c[nH]c2ccccc12 [DIM-C-oPhOH],Nur77 antagonist activity (inhibition of agonist-induced transactivation),[1],did not exhibit Nur77 antagonist activity
same,toxicity in cotreated cells,[1]; high doses (20 μM) of both Nur77 agonists and DIM-C-oPhOH,toxic
COc1ccc(C(c2c[nH]c3ccccc23)c2c[nH]c3ccccc23)cc1 [DIM-C-pPhOCH3],"Nur77 activation, structure dependence (isomers and ring-substituted analogs)",[2],active
same,"luciferase activity, GAL4-Nur77 (full length)/pGAL4",[2],activated luciferase activity
same,transactivation with GAL4-CARM-1,[3],slightly activated
same,transactivation with GAL4-SRC-3,[3],induced transactivation
same,animal weight gain and organ weights,[4]; 25 mg/kg/day vs corn oil,comparable
same,tumor weights,"[4]; 25 mg/kg/day, oral gavage (FIG. 7B)",parallel decrease in tumor weights
same,tumor growth (area),"[4]; 25 mg/kg/day, oral gavage every second day (FIG. 7A)",significantly inhibited tumor growth
same,brain regions by H & E staining,[4]; treated vs corn oil,did not indicate any differences
same,annexin V-stained cells,[5],time- and dose-dependent increase
same,PI staining after 6 hr,"[5]; Panc-28, 6 hr",minimal PI staining
same,annexin V-stained cells after 6 hr,"[5]; Panc-28, 6 hr",significantly increased
same,PI staining after 12 hr,"[5]; Panc-28, 12 hr",PI staining was increased
same,"Nur77 translocation, Western blot of cytosolic and nuclear extracts",[6],translocation from the nucleus is not observed
same,Nur77 localization by immunostaining,[6],Nur77 remained in the nucleus
same,"luciferase activity, GAL4-Nur77(E/F)/pGAL4",[7],induced luciferase activity
same,PPARγ activation,[8],PPARγ-inactive
same,TRAIL mRNA levels,[9],induced TRAIL mRNA levels
FC(F)(F)c1ccc(C(c2c[nH]c3ccccc23)c2c[nH]c3ccccc23)cc1 [DIM-C-pPhCF3],"luciferase activity, GAL4-Nur77 (full length)/pGAL4",[2],activated luciferase activity
same,transactivation with GAL4-CARM-1,[3],slightly activated
same,"Nur77 translocation, Western blot of cytosolic and nuclear extracts",[6],translocation from the nucleus is not observed
same,Nur77 localization by immunostaining,[6],Nur77 remained in the nucleus
same,"luciferase activity, GAL4-Nur77(E/F)/pGAL4",[7],induced luciferase activity
same,PPARγ activation,[8],also activates PPARγ
"CC[C@@]1(O)C(=O)OCc2c1cc1n(c2=O)Cc2cc3ccccc3nc2-1 [camptothecin, reference compound]",annexin V-stained cells,[5],comparable
COc1ccccc1C(c1c[nH]c2ccccc12)c1c[nH]c2ccccc12 [DIM-C-oPhOCH3],"Nur77 activation, structure dependence (isomers and ring-substituted analogs)",[2],Only the para-substituted compound was active
COc1cccc(C(c2c[nH]c3ccccc23)c2c[nH]c3ccccc23)c1 [DIM-C-mPhOCH3],"Nur77 activation, structure dependence (isomers and ring-substituted analogs)",[2],Only the para-substituted compound was active
Oc1cccc(C(c2c[nH]c3ccccc23)c2c[nH]c3ccccc23)c1 [DIM-C-mPhOH],Nur77 antagonist activity (inhibition of agonist-induced transactivation),[1],did not inhibit
Oc1ccc(C(c2c[nH]c3ccccc23)c2c[nH]c3ccccc23)cc1 [DIM-C-pPhOH],effect on cell survival,[10]; Panc-28 (FIG. 5A),did not affect cell survival
same,cell proliferation at longer time points,"[10]; Panc-28, 4 and 6 days",slightly inhibited cell proliferation
same,induction of cell death,"[10]; Panc-28, concentrations as high as 20 μM",induction of cell death was not observed
same,"luciferase activity, GAL4-Nur77 (full length)/pGAL4",[2],inactive; also recorded: did not induce activity
same,inhibition of TRAIL protein expression induced by Nur77 agonists,[11]; [14],inhibited induction
same,TRAIL protein expression,[11]; Panc-28 cells (FIG. 6A),did not induce TRAIL
same,activation of NurRE construct,[12],inactive
same,"luciferase activity, GAL4-Nur77(E/F)/pGAL4",[7],no response was observed
same,inhibition of PARP cleavage induced by Nur77 agonists,[13]; [14],inhibited induction
same,cleavage of PARP,[13]; Panc-28 cells (FIG. 5B),did not induce this response
same,Nur77 antagonist activity (inhibition of agonist-induced transactivation),[1],antagonizes activation of Nur77 by all three C-DIM compounds
"CCC(=C/[C@H](C)C/C=C/C(C)=C/[C@@H](C)C(=O)[C@@H](C)[C@H](O)[C@@H](C)C/C(C)=C/C(=O)O)/C=C/[C@@H]1OC(=O)C=C[C@@H]1C [leptomycin B, Leptomycin B]","PARP cleavage, LMB alone","[13]; Panc-28, 1 ng/ml (FIG. 5E)",slightly induced PARP cleavage
same,effect of leptomycin B on PARP cleavage induced by Nur77 agonists,[13],not affected
same,effect of leptomycin B on PARP cleavage induced by Nur77 agonists,[13]; listed as LMB,enhanced PARP cleavage
c1ccc(C(c2c[nH]c3ccccc23)c2c[nH]c3ccccc23)cc1 [DIM-C-Ph],"luciferase activity, GAL4-Nur77 (full length)/pGAL4",[2],activated luciferase activity
same,"Nur77 translocation, Western blot of cytosolic and nuclear extracts",[6],translocation from the nucleus is not observed
same,Nur77 localization by immunostaining,[6],Nur77 remained in the nucleus
same,"luciferase activity, GAL4-Nur77(E/F)/pGAL4",[7],induced luciferase activity
same,PPARγ activation,[8],PPARγ-inactive
same,TRAIL mRNA levels,[9],induced TRAIL mRNA levels
